Measurements taken from patent US20110306598A1, “Use of the association of a sinus node if current inhibitor and an angiotensin-converting enzyme inhibitor in the treatment of heart failure” (LES LABORATOIRES SERVIER, priority 2010, published 2011).
Marks after values point to notes of the source that are not given here.

Assays:
[1] = test system: rats with heart failure (left coronary artery ligature); assay: Same rat heart failure model; ivabradine, perindopril or their association; format: in vivo; details: HF rats
Experimental: (§1) Heart failure was induced in rats by ligature of the left coronary artery (the control animals undergo an operation but are not ligated), which causes ischaemia of part of the wall of the left ventricle. The animals recuperate for 7 days and then, for 12 weeks, they are given either 3 mg/kg of compound A, or 0.4 mg/kg of perindopril, or perindopril and compound A concomitantly.
This effect on systolic function and diastolic function was then studied using the association of perindopril and a different If current inhibitor, ivabradine.

[2] = test system: rats with heart failure (left coronary artery ligature); assay: Heart failure induced in rats by ligature of the left coronary artery; compound A, perindopril or both for 12 weeks; format: in vivo, rat; details: HF rats; for LVEDPVR: compliance of LV; for LVEDPVR / LVEDP / LVESP / LVESPVR / cardiac output / dP/dtmax / dP/dtmin / shortening fraction (% of the diameter of the LV) / Heart rate / tau: compound A 3 mg/kg, perindopril 0.4 mg/kg; for LVEDPVR / LVEDP / LVESP / LVESPVR / cardiac output / dP/dtmax / dP/dtmin / shortening fraction (% of the diameter of the LV) / tau: 12 weeks; for tau: relaxation time
Experimental: as §1

[3] = Table 4B, ivabradine on its own

Row | Structure (SMILES) | effect on compliance of the left ventricle, measured by LVEDPVR (in words) [2] | effect on end diastolic pressure and relaxation time (in words) [2] | effect on systolic function, seen from the LVESPVR (in words) [2] | LVEDPVR [2] | LVEDP [2] | LVESP [2] [mmHg] | LVESPVR [2] | cardiac output [2] | dP/dtmax [2] | dP/dtmin [2] | shortening fraction (% of the diameter of the LV) [2] | Heart rate ([2]; duration of treatment 4 weeks) [bpm] | Heart rate ([2]; duration of treatment 12 weeks) | tau [2] | other results
1 | CCC[C@H](N[C@@H](C)C(=O)N1[C@H](C(=O)O)C[C@@H]2CCCC[C@@H]21)C(=O)OCC [perindopril] | very clearly improved | clearly improved | improves systolic function | 2.36^† mmHg/RVU | 5.17^† mmHg | 99 | 16.4^† mmHg/RVU | 142^† mL/min | 5.97 10^3 mmHg/s | 5.11 −10^3 mmHg/s | 17.1 % of the diameter of the LV | 388.2 | 387.7 bpm | 7.31^† ms | effect on systolic function (in words) [1]: improves the systolic function; LVEDP ([1]; Table 4a): 6.88^† mmHg; LVEDPVR ([1]; Table 4a): 2.25^† mmHg/RVU; LVESP ([1]; Table 4a): 102^† mmHg; LVESPVR ([1]; Table 4a): 14.5^† mmHg/RVU; dP/dtmax ([1]; Table 4a): 6.08^† 10^3 mmHg/s; dP/dtmin ([1]; Table 4a): 4.99 −10^3 mmHg/s; tau ([1]; Table 4a): 10.92^† ms
2 | COc1cc2c(cc1OC)CC(=O)N(CCCN(C)C[C@H]1Cc3cc(OC)c(OC)cc31)CC2 [ivabradine, 3-{3-[{[(7S)-3,4-dimethoxybicyclo[4.2.0]octa-1,3,5-trien-7-yl]-methyl}(methyl)amino]propyl}-7,8-dimethoxy-1,3,4,5-tetrahydro-2H-3-benzazepin-2-one] |  |  |  |  |  |  |  |  |  |  |  |  |  |  | effect on diastolic dysfunction (in words) [1]: comparable to that of perindopril on its own; LVEDPVR [1, 3]: 1.87*^† mmHg/RVU; LVESPVR [1, 3]: 20.63*^† mmHg/RVU
3 | COc1cc2c(cc1OC)CCN(C(=O)CCN(C)C[C@H]1Cc3cc(OC)c(OC)cc31)CC2 [compound A, N-{[(7S)-3,4-dimethoxybicyclo[4.2.0]octa-1,3,5-trien-7-yl]methyl}-3-(7,8-dimethoxy-1,2,4,5-tetrahydro-3H-3-benzazepin-3-yl)-N-methyl-3-oxo-1-propanamine] | very clearly improved | clearly improved | improves systolic function | 2.70^† mmHg/RVU | 4.89^† mmHg | 118 | 16.1^† mmHg/RVU | 127 mL/min | 6.78 10^3 mmHg/s | 5.87 −10^3 mmHg/s | 18.0 % of the diameter of the LV | 349.3 | 342.7^† bpm | 8.37^† ms | effect on heart rate (in words) ([2]; vs untreated HF): significant reduction in heart rate
